Key:
[1] = dogs; preclinical animal studies; cited from earlier work
[2] = Single ascending dose (SAD) study, plasma PK; assay type: in vivo, human; settings: for AUC0-t / AUC0-∞ / Cmax / MRT0-∞ / λz: mean (%CV); for t1/2: mean ± SD; for Tmax: median (range)
Procedure: For the MAD and food-effect studies, the doses were chosen according to the PK and safety results of the SAD study. […] The tablets were administered from the lowest dosage. The next highest dose level was initiated based on PK characteristics and a 5-day safety observation of the previous dose by the investigators and sponsors. […] This study included two groups: one group under feeding conditions (a high-fat diet comprising 110 g of boiled eggs, 240 mL of milk, 20 g of bacon, 20 g of butter, 50 g of toast, 10 g of salad oil, and 115 g of chips consumed within 30 min before dosing) and one group under fasting conditions. […] Interventions for all cohorts, except the 200 mg cohort, were conducted at the First Hospital of Jilin University (Changchun, China). The randomization lists were created using the PLAN statistical procedure in SAS 9.4 software (SAS Institute, Cary, NC, USA). Throughout the study, unblinding was only used in the event of SAEs or other emergency situations; otherwise, blinding was maintained for investigators, participants, and sponsors until the study’s completion.
For the SAD, food-effect, and DDI studies, blood samples were collected before dose administration and at 15 min, 30 min, and 1, 1.5, 2, 3, 4, 6, 8, 12, 24, 36, 48, 72, and 96 h after dose administration. We used collection tubes containing the anticoagulant EDTA for PK assessments. In the MAD study, blood samples were obtained on day 1 at 0 h, 15 min, 30 min, and 1, 1.5, 2, 3, 4, 6, 8, and 12 h after dosing; on days 2–4; and on day 5 at 0 h, 15 min, 30 min, and 1, 1.5, 2, 3, 4, 6, 8, 12, 24, 36, 48, 72, and 96 h after dosing. The […] samples were subsequently centrifuged at 1,300 × g for 10 min at 2–8°C. For the food-effect component, urine samples were collected in tubes containing 0.01% Triton X-100 at the following intervals: 0, 0–6, 6–12, 12–24, 24–48, 48–72, 72–96, 96–120, 120–144, 144–168, and 168–192 h after administration. Fecal samples were collected from 0 h to 192 h after the first dose. All the samples were stored at −80°C.
The standard curve concentrations ranged from 5 to 5,000 ng/mL, 10 to 10,000 ng/mL, and 5 to 5,000 µg/g in the plasma, urine, and fecal samples, respectively. The lower limits of quantification were 5.00 ng/mL, 10.00 ng/mL, and 5.00 µg/g for the plasma, urine, and fecal samples, respectively.
The noncompartmental model (Phoenix WinNonlin ver. 8.2.2.227, Certara, Princeton, USA) was used to calculate the PK parameters: time to maximum observed plasma concentration (Tmax); maximum observed plasma concentration (Cmax); area under the concentration-time curve from the time of dosing to the last time point with measurable plasma concentrations of drug (AUC0-t); AUC from the time of dosing extrapolated to infinity (AUC0-∞); terminal elimination half-life of the drug in plasma (t1/2); clearance (CL/F); volume (Vz/F); terminal phase elimination rate constant (λz); and mean retention time (MRT). The power model was used to evaluate the relationship between PK parameters and the dose level, expressed as ln (PK parameter) = ln (α) + β * ln (dose), where ln (α) is the intercept of the transformed linear regression equation and β is the slope. Upon calculating the 90% CI of β, if the entire 90% CI of β falls within the judgment interval, the PK parameters can be deemed linearly related to the dosage.

[3] = Exposure-response analysis of adverse events (logistic regression); set-up: species or system human
From the text: For safety analysis, we also employed an exposure-response analysis method that included four binary outcomes: any adverse drug reaction (ADR), hypertriglyceridemia, hyperuricemia, and elevated creatinine levels. The exposure levels were derived by simulating individual parameter estimates from a population PK model ([23]), which generated dense sampling drug concentration-time curves. The noncompartmental analysis was subsequently performed using the PKNCA package in R software ver. 4.3 to calculate the area under the concentration-time curve over 24 h (AUC0-24) using the trapezoidal method and the maximum blood drug concentration within 24 h (Cmax).
logit(P(Yi=1))=β0+β1⋅log(Xi)
In this context, Xi represents the exposure (AUC0-24 and Cmax) of the ith subject, β0 denotes the intercept, and β1 indicates the coefficient for exposure. P(Yi = 1) represents the probability of AE occurrence, with logit referring to the logistic transformation.

[4] = Preclinical toxicology, NOAEL in rats; assay type: in vivo; settings: from rat NOAEL, at 60 kg body weight
[5] = Food-effect study, plasma PK; settings: for AUC0-t / AUC0-∞ / Cmax / MRT0-∞: mean (%CV); for t1/2: mean ± SD

Structure (SMILES): O=C(NC1CCCC1)C(=O)[C@H](C[C@@H]1CCNC1=O)NC(=O)[C@@H]1[C@H]2CCC[C@H]2CN1C(=O)[C@@H](NC(=O)C(F)(F)F)C1CCCCC1 [RAY1216, leritrelvir]
- no-observed-adverse-effect level (NOAEL) [1]: 600 mg/kg/day
- AUC0-t ([2]; 200 mg single dose): 5,510 (22.7) ng·h/mL
- AUC0-∞ ([2]; 200 mg single dose): 5,550 (22.7) ng·h/mL
- Cmax ([2]; 200 mg single dose): 1,270 (42) ng/mL
- MRT0-∞ ([2]; 200 mg single dose): 5.01 (13.5) h
- λz ([2]; 200 mg single dose): 0.214 (6.2) h^−1
- t1/2 ([2]; 200 mg single dose): 3.25 ± 0.202 h
- Tmax ([2]; 200 mg single dose): 1.5 (0.5, 2.0) h
- AUC0-t ([2]; 400 mg single dose): 11,700 (45.8) ng·h/mL
- AUC0-∞ ([2]; 400 mg single dose): 11,700 (45.6) ng·h/mL
- Cmax ([2]; 400 mg single dose): 2,250 (53.8) ng/mL
- MRT0-∞ ([2]; 400 mg single dose): 6.05 (9.9) h
- λz ([2]; 400 mg single dose): 0.172 (36) h^−1
- t1/2 ([2]; 400 mg single dose): 4.83 ± 2.86 h
- Tmax ([2]; 400 mg single dose): 1.3 (1.0, 4.0) h
- AUC0-t ([2]; 800 mg single dose): 16,200 (18.7) ng·h/mL
- AUC0-∞ ([2]; 800 mg single dose): 16,300 (18.8) ng·h/mL
- Cmax ([2]; 800 mg single dose): 3,590 (20.2) ng/mL
- MRT0-∞ ([2]; 800 mg single dose): 6.75 (38.2) h
- λz ([2]; 800 mg single dose): 0.128 (73.6) h^−1
- t1/2 ([2]; 800 mg single dose): 10.3 ± 9.72 h
- Tmax ([2]; 800 mg single dose): 1.5 (1.0, 3.0) h
- AUC0-t ([2]; 1,600 mg single dose): 29,100 (24.1) ng·h/mL
- AUC0-∞ ([2]; 1,600 mg single dose): 29,100 (24.1) ng·h/mL
- Cmax ([2]; 1,600 mg single dose): 6,180 (20.1) ng/mL
- MRT0-∞ ([2]; 1,600 mg single dose): 5.94 (13.4) h
- λz ([2]; 1,600 mg single dose): 0.139 (22.4) h^−1
- t1/2 ([2]; 1,600 mg single dose): 5.22 ± 1.16 h
- Tmax ([2]; 1,600 mg single dose): 1.5 (1.0, 4.0) h
- exposure-response relationship of ADRs, hypertriglyceridemia, hyperuricemia, elevated creatinine with exposure (AUC0-24, Cmax) [3]: no significant dose-response relationship
- human equivalent dose [4]: approximately 10,800 mg/day
- Tmax ([5]; 500 mg alongside 100 mg ritonavir, fasting): 2.5 h
- Tmax ([5]; 500 mg alongside 100 mg ritonavir, high-fat food): 3.0 h
- AUC0-t ([5]; 800 mg, Fast): 22,700 (38.9) ng·h/mL
- AUC0-∞ ([5]; 800 mg, Fast): 23,000 (38.9) ng·h/mL
- Cmax ([5]; 800 mg, Fast): 4,760 (31.6) ng/mL
- MRT0-∞ ([5]; 800 mg, Fast): 7.01 (26.4) h
- t1/2 ([5]; 800 mg, Fast): 7.72 ± 4.46 h
- Tmax ([5]; 800 mg, Fast, median (range)): 1.5 (0.5, 3.0) h
- AUC0-t ([5]; 800 mg, Fed): 34,100 (28) ng·h/mL
- AUC0-∞ ([5]; 800 mg, Fed): 34,200 (27.9) ng·h/mL
- Cmax ([5]; 800 mg, Fed): 8,510 (27.6) ng/mL
- MRT0-∞ ([5]; 800 mg, Fed): 5.96 (22.2) h
- t1/2 ([5]; 800 mg, Fed): 7.08 ± 3.61 h
- Tmax ([5]; 800 mg, Fed, median (range)): 3.0 (1.0, 6.0) h
- Tmax delayed by ([5]; 800 mg, feeding vs fasting condition): 1.5 h
